The test system of assay [1] is BUT-R/1 mutant (ATCC No. PTA-8515). The following applies: 3 days, 37° C. The procedure:
(§1) But-R/1 mutant (ATCC No. PTA-8515), a derivative of C. acetobutylicum ATCC 824, was produced via long-term incubation of wild-type C. acetobutylicum 824 in reinforced Clostridium medium (“RCM”) with glucose (0.5%) and butanol (2.5% v/v) under anaerobic conditions at 37° C. When turbidity developed, the bacterial suspension was spread onto RCM agar with 2.5% butanol. […] Mutants were purified twice using RCM agar containing 2.5% of butanol. […] Cells were grown for 3 days in RCM medium in an anaerobic jar at 37° C. Optical density of cell suspensions was measured at 600 nm spectrophotometrically.

Assay [2] relates to Clostridium acetobutylicum ATCC 824 (wild type). Conditions: 3 days, 37° C. The procedure:
as §1

Assay [3] deals with omrA/pCR-II TOPO/TOP10 E. coli cells. The procedure: Survival rates of E. coli strains with and without the omrA-plasmid were determined. […] For this experiment, the omrA gene was inserted into the expression plasmid pCR-Blunt II-TOPO (invitrogen, Carlsbad, Calif.) hosted by the TOP10 E. coli strain [F-mcrA Δ (mcr-hsdRMS-mcrBC) Φ)80lacZ ΔM15 ΔlacX74 recA1 deoR araD139 Δ (ara-leu)7697 galU galK rpsL (Str^R) endA1 nupG]. The plasmid with no insertion was used as a control. Flasks (50 ml) containing 10 ml of LB broth with 50 μg/ml kanamycin were inoculated with 100 μl of bacterial cells grown overnight at 37° C. in the same medium and incubated at 37° C. with aeration (200 rpm) for 4 hours. Bacterial growth was stopped by adding chloramphenicol (100 μg/ml) and optical density of cell cultures measured spectrophotometrically at 600 nm.

Like-named read-outs stand apart in the source and are kept apart here.

With butanol, the “Growth inhibition, Mutant” value in assay [1] (butanol 0.3 % (v/v)) worked out at 0; in assay [1] (butanol 0.6 % (v/v)), 0; in assay [1] (butanol 0.9 % (v/v)), 0; in assay [1] (butanol 1.2 % (v/v)), 23.2; in assay [1] (butanol 1.5 % (v/v)), 73.8; in assay [1] (butanol 1.8 % (v/v)), 84.2. In addition, the “Growth inhibition, WT” value in assay [2] (butanol 0.3 % (v/v)) is listed as 8.4; in assay [2] (butanol 0.6 % (v/v)) it was 40.4; in assay [2] (butanol 0.9 % (v/v)), 56.1; in assay [2] (butanol 1.2 % (v/v)) it was 89.7; in assay [2] (butanol 1.5 % (v/v)), 94.2; in assay [2] (butanol 1.8 % (v/v)), 99.5. In addition, in assay [3] (FIG. 2), the “resistance to butanol compared with E. coli TOPO10 host cells” value is “slightly more resistant”. Further, in assay [3] (FIG. 3, varying levels of butanol), the “bacterial survival in presence of butanol compared with host strain with no omrA gene” value is given as “increased bacterial survival significantly”.
